Measured values published in ChEMBL document CHEMBL5143698, “Phenotypic screen identifies FOXO inhibitor to counteract maturation and promote expansion of human iPS cell-derived cardiomyocytes” (Bioorg Med Chem, 2022).
Activity calls are given as the source filed them. The calls are words filed in the database; no cut-off is given here.

What was measured:
[1] = test system: iPSC-CM; test: Upregulation of TBX2 gene expression in human iPSC derived cardiomyocytes at 100 nM incubated for 5 days by qRT-PCR analysis; format: functional, cell-based; conditions: time 5.0 day
[2] = test system: iPSC-CM; test: Upregulation of MYH6 gene expression in human iPSC derived cardiomyocytes at 100 nM incubated for 5 days by qRT-PCR analysis; format: functional, cell-based; conditions: time 5.0 day
[3] = test system: iPSC-CM; test: (§1) Antiproliferative activity against human iPSC derived cardiomyocytes assessed as increase in cell number by measuring fold change after 3 passages at 100 nM incubated for 2 days by Hoechst staining based analysis; format: functional; conditions: time 2.0 day
[4] = as §1; format: functional, iPSC-CM; conditions: time 2 day
[5] = test system: iPSC-CM; test: Downregulation of MYL2 gene expression in human iPSC derived cardiomyocytes measured after two passages following incubation for 5 days by qRT PCR analysis; format: functional, cell-based; conditions: dose 3-100 nM, time 5.0 day, DDE = dose-dependent effect
[6] = test system: iPSC-CM; test: Downregulation of NPPA gene expression in human iPSC derived cardiomyocytes measured after two passages following incubation for 5 days by qRT PCR analysis; format: functional, cell-based; conditions: dose 3-100 nM, time 5.0 day, DDE = dose-dependent effect
[7] = test system: iPSC-CM; test: Downregulation of ANP protein level in human iPSC derived cardiomyocytes at 100 nM incubated for 3 weeks by immunofluorescence assay; format: functional, cell-based
[8] = test system: iPSC-CM; test: Downregulation of MLC2v protein level in human iPSC derived cardiomyocytes at 100 nM incubated for 3 weeks by immunofluorescence assay; format: functional, cell-based
[9] = Cytotoxicity against human iPSC derived cardiomyocytes at >=500 nM incubated for 4 days without passaging by Hoechst staining based analysis; format: toxicity, cell-based; conditions: ipsc-cm, 96 h, 0.5 µM, time 4 day
[10] = test system: iPSC-CM; test: Downregulation of MYH7 gene expression in human iPSC derived cardiomyocytes measured after two passages following incubation for 5 days by qRT PCR analysis; format: functional, cell-based; conditions: dose 3-100 nM, time 5.0 day, DDE = dose-dependent effect
[11] = test system: iPSC-CM; test: Upregulation of IRX4 gene expression in human iPSC derived cardiomyocytes aat 100 nM incubated for 5 days by qRT-PCR analysis; format: functional, cell-based; conditions: time 5.0 day
[12] = test system: iPSC-CM; test: Downregulation of MYH7 gene expression in human iPSC derived cardiomyocytes at 100 nM incubated for 5 days by qRT-PCR analysis; format: functional, cell-based; conditions: time 5.0 day
[13] = target: Forkhead box protein O1 (Homo sapiens, UniProt Q12778); test: Inhibition of FOXO-1 in human HepG2 cells incubated for 20 hrs by Renilla luciferase reporter gene assay; format: cell-based
[14] = test system: iPSC-CM; test: Downregulation of MYL2 gene expression in human iPSC derived cardiomyocytes at 100 nM incubated for 5 days by qRT-PCR analysis; format: functional, cell-based; conditions: time 5.0 day
[15] = test system: iPSC-CM; test: Downregulation of NPPA gene expression in human iPSC derived cardiomyocytes at 100 nM incubated for 5 days by qRT-PCR analysis; format: functional, cell-based; conditions: time 5.0 day
[16] = Antiproliferative activity against human iPSC derived cardiomyocytes assessed as fold increase in cell number at 100 nM incubated for 4 days without passaging by Hoechst staining based analysis; format: functional, iPSC-CM; conditions: time 4 day

Sequence of Forkhead box protein O1 (Q12778 whole entry): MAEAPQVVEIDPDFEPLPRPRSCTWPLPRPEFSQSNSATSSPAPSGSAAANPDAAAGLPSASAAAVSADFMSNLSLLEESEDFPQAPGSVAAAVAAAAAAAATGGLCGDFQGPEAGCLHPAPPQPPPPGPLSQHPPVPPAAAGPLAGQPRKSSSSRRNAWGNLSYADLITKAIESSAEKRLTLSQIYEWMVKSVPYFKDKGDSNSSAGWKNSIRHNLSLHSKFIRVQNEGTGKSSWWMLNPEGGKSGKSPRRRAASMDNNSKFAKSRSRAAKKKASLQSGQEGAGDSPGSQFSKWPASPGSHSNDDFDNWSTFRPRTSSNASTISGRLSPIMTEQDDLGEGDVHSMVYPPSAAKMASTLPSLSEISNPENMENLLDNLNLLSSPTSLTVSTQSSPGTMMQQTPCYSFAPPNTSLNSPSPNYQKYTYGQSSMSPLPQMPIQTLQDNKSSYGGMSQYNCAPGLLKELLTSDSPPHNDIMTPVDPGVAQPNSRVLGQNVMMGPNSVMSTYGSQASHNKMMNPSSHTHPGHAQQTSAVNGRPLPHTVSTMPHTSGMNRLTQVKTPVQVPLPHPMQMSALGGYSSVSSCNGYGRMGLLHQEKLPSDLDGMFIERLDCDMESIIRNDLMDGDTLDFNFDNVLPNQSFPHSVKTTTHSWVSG

Structure (SMILES): CCn1cc(C(=O)O)c(=O)c2c(N)c(F)c(NC3CCCCC3)cc21
- Activity [1]: Active
- Activity [2]: Active
- Activity [3]: Active
- fold change (FC) [4]: >30
- Activity [5]: Dde
- Activity [6]: Dde
- Activity [7]: Active
- Activity [8]: Active
- Activity [9]: Toxic
- Activity [10]: Dde
- Activity [11]: Active
- Activity [12]: Active
- IC50 [13]: 33 nM
- Activity [14]: Active
- Activity [15]: Active
- fold change (FC) [16]: >3
